The record followed here is ChEMBL document CHEMBL4513161, “CO-ADD screening of MMV (CH) - Pandemic Response Box” (2021).

One assay relates to HEK293. As to the kind of experiment: cells. The assay is classed as functional, Homo sapiens, ATCC CRL1573. The conditions noted are these: Homo sapiens, ATCC CRL1573, HEK293; ASSAY_TEST Inhibition of Cell Viability; detection method Resazurin; Fluorescence (ex560/em590); MEDIA DMEM with 10% FBS; plate type 384well; TC; CORNING #3712; time 18 hr; read-out: CC50.
Assay [1] relates to Pseudomonas aeruginosa. As to the kind of experiment: Antibacterial activity against Pseudomonas aeruginosa PAO397 [PAO1 d(mexAB-oprM) d(mexCD-oprJ) d(mexEF-oprN) d(mexJKL) d(mexXY) d(opmH)] (CO-ADD:GN_211); MIC in CAMBH media using NBS plates, by OD(600). The conditions noted are these: ASSAY_TEST Inhibition of Bacterial Growth, detection method Absorption (OD600), MEDIA CAMHB, plate type 384well, CORNING #3640, time 18 hr. The assay is classed as functional.

Another assay concerns Staphylococcus aureus. Briefly: microbe, parasite or virus in culture. Particulars: ATCC 43300, 18 h, ASSAY_TEST Inhibition of Bacterial Growth, detection method Absorption (OD600), MEDIA CAMHB, plate type 384well, NBS, CORNING #3640.
The next assay deals with Escherichia coli. Briefly: microbe, parasite or virus in culture. The conditions noted are these: ATCC 25922, 18 h, ASSAY_TEST Inhibition of Bacterial Growth, detection method Absorption (OD600), MEDIA CAMHB, plate type 384well, NBS, CORNING #3640.
A further assay deals with Klebsiella pneumoniae. Briefly: microbe, parasite or virus in culture. The conditions noted are these: ATCC 700603, 18 h, ASSAY_TEST Inhibition of Bacterial Growth, detection method Absorption (OD600), MEDIA CAMHB, plate type 384well, NBS, CORNING #3640.
Assay [2] has as its system Pseudomonas aeruginosa. Briefly: microbe, parasite or virus in culture. Particulars: ATCC 27853, 18 h, ASSAY_TEST Inhibition of Bacterial Growth, detection method Absorption (OD600), MEDIA CAMHB, plate type 384well, NBS, CORNING #3640.
Description: Antibacterial activity against Pseudomonas aeruginosa ATCC 27853 (CO-ADD:GN_042); MIC in CAMBH media using NBS plates, by OD(600)
The subject of a further assay is Acinetobacter baumannii. Briefly: microbe, parasite or virus in culture. The conditions noted are these: ATCC 19606, 18 h, ASSAY_TEST Inhibition of Bacterial Growth, detection method Absorption (OD600), MEDIA CAMHB, plate type 384well, NBS, CORNING #3640.
A further assay relates to Candida albicans. Briefly: microbe, parasite or virus in culture. Particulars: ATCC 90028, ASSAY_TEST Inhibition of Fungal Growth, detection method Absorption (OD530), plate type 384well, NBS, CORNING #3640.

≈ marks a conversion by molar mass, not a printed value. Bounds are passed on as bounds.

Description for Acinetobacter baumannii: Antibacterial activity against Acinetobacter baumannii ATCC 19606 (CO-ADD:GN_034); MIC in CAMBH media using NBS plates, by OD600
Description for Candida albicans: Antifungal activity against Candida albicans ATCC 90028 (CO-ADD:FG_001); MIC in YNB media using NBS plates, by OD630
Description for Cryptococcus neoformans: Antifungal activity against Cryptococcus neoformans H99 ATCC 208821 (CO-ADD:FG_002); MIC in YNB media using NBS plates, by Resazurin OD(600-570)
Description for Escherichia coli: Antibacterial activity against Escherichia coli ATCC 25922 (CO-ADD:GN_001); MIC in CAMBH media using NBS plates, by OD(600)
Description for Klebsiella pneumoniae: Antibacterial activity against Klebsiella pneumoniae MDR ATCC 70063 (CO-ADD:GN_003); MIC in CAMBH media using NBS plates, by OD(600)
Description for Staphylococcus aureus: Antibacterial activity against Staphylococcus aureus MRSA ATCC 43300 (CO-ADD:GP_020); MIC in CAMBH media, using NBS plates, by OD(600)

Consider `O=C(NO)C1(CS(=O)(=O)c2ccc(Oc3ccc(Cl)cc3)cc2)CCOCC1` [CTS-1027], for which the CC50 with HEK293 was over 20 µM. The MIC against Pseudomonas aeruginosa [1] was 20 µM (≈ 8.52 µg/mL); against Cryptococcus neoformans it was over 20 µM; against Staphylococcus aureus it was over 20 µM; in the assay on Escherichia coli it was over 20 µM; with Klebsiella pneumoniae, over 20 µM; against Pseudomonas aeruginosa [2] it was over 20 µM. The MIC in the assay with Acinetobacter baumannii and against Candida albicans was over 20 µM each time.

Take `O=C(O)c1ccc(-n2nc(-c3ccccc3O)nc2-c2ccccc2O)cc1` [DEFERASIROX]: the CC50 with HEK293 was over 20 µM. The MIC with Pseudomonas aeruginosa [1], in the assay with Cryptococcus neoformans, against Staphylococcus aureus, with Escherichia coli, with Klebsiella pneumoniae and in the assay on Pseudomonas aeruginosa [2] was over 20 µM in each case. For the same molecule, the MIC in the assay with Acinetobacter baumannii and with Candida albicans was over 20 µM each time.

Turning to `COc1cc2c(O)c3c(c(-c4ccc5c(c4)OCO5)c2cc1OC)C(=O)OC3` [DIPHYLLIN], in the assay with HEK293, the CC50 was over 20 µM. Moreover, the MIC in the assay with Pseudomonas aeruginosa [1], in the assay with Cryptococcus neoformans, in the assay with Staphylococcus aureus, against Escherichia coli, against Klebsiella pneumoniae and in the assay with Pseudomonas aeruginosa [2] was over 20 µM throughout. Also, the MIC with Acinetobacter baumannii and against Candida albicans was over 20 µM throughout.

With `CC(C)c1cc2c(cc1S(=O)(=O)O)[C@@]1(C)CCC[C@@](C)(C(=O)O)[C@@H]1CC2` [ECABET], in the assay with HEK293, the CC50 is over 20 µM. Moreover, the MIC in the assay on Pseudomonas aeruginosa [1], in the assay with Cryptococcus neoformans, in the assay on Staphylococcus aureus, with Escherichia coli, in the assay with Klebsiella pneumoniae and in the assay with Pseudomonas aeruginosa [2] was over 20 µM in each case. The MIC in the assay with Acinetobacter baumannii and against Candida albicans was over 20 µM each time.

In the case of `CC[C@H]1OC(=O)[C@H](C)[C@@H](O[C@H]2C[C@@](C)(OC)[C@@H](O)[C@H](C)O2)[C@H](C)[C@@H](O[C@@H]2O[C@H](C)C[C@H](N(C)C)[C@H]2O)[C@](C)(O)C[C@@H](C)C(=O)[C@H](C)[C@@H](O)[C@]1(C)O` [ERYTHROMYCIN], the CC50 with HEK293 was over 20 µM. Further, the MIC in the assay with Pseudomonas aeruginosa [1] is 20 µM (≈ 14.7 µg/mL); against Cryptococcus neoformans, over 20 µM; against Staphylococcus aureus, over 20 µM; against Escherichia coli it was over 20 µM; with Klebsiella pneumoniae, over 20 µM; against Pseudomonas aeruginosa [2], 20 µM (≈ 14.7 µg/mL). In addition, the MIC in the assay on Acinetobacter baumannii and against Candida albicans was over 20 µM each time.

Take `CC[C@@H](CO)NCCN[C@@H](CC)CO` [ETHAMBUTOL]: the CC50 in the assay with HEK293 was over 20 µM. Besides, the MIC against Pseudomonas aeruginosa [1], in the assay on Cryptococcus neoformans, in the assay with Staphylococcus aureus, in the assay on Escherichia coli, in the assay on Klebsiella pneumoniae and against Pseudomonas aeruginosa [2] was over 20 µM in each case. The MIC against Acinetobacter baumannii and in the assay on Candida albicans was over 20 µM in each case.

As to `O=C1[C@H](CC[C@H](O)c2ccc(F)cc2)[C@@H](c2ccc(O)cc2)N1c1ccc(F)cc1` [EZETIMIBE], the CC50 with HEK293 was over 20 µM. Moreover, the MIC in the assay on Pseudomonas aeruginosa [1], against Cryptococcus neoformans, against Staphylococcus aureus, in the assay on Escherichia coli, with Klebsiella pneumoniae and with Pseudomonas aeruginosa [2] was over 20 µM throughout. In addition, the MIC against Acinetobacter baumannii and in the assay with Candida albicans was over 20 µM in each case.

For the molecule `COC(=O)Nc1nc2cc(Sc3ccccc3)ccc2[nH]1` [FENBENDAZOLE], the CC50 in the assay on HEK293 was 8.24 µM. The MIC against Pseudomonas aeruginosa [1] was over 20 µM; with Cryptococcus neoformans it was 0.312 µM (≈ 0.0935 µg/mL); in the assay on Staphylococcus aureus, over 20 µM; against Escherichia coli it was over 20 µM; against Klebsiella pneumoniae, over 20 µM; against Pseudomonas aeruginosa [2] it was over 20 µM. Further, the MIC against Acinetobacter baumannii and against Candida albicans was over 20 µM in each case.

As for `CC1=C(/C=C/C(C)=C/C=C/C(C)=C/C(=O)Nc2ccc(O)cc2)C(C)(C)CCC1` [FENRETINIDE], the CC50 in the assay with HEK293 is over 20 µM. Moreover, the MIC in the assay on Pseudomonas aeruginosa [1], in the assay on Cryptococcus neoformans, with Staphylococcus aureus, with Escherichia coli, against Klebsiella pneumoniae and in the assay on Pseudomonas aeruginosa [2] was over 20 µM in each case. Also, the MIC in the assay on Acinetobacter baumannii and in the assay with Candida albicans was over 20 µM in each case.

As to `Nc1nc2c(ncn2/C=C2/CC2(CO)CO)c(=O)[nH]1` [FILOCICLOVIR], in the assay on HEK293, the cytotoxic concentration (CC50) is over 20 µM. The MIC in the assay with Pseudomonas aeruginosa [1], with Cryptococcus neoformans, with Staphylococcus aureus, against Escherichia coli, with Klebsiella pneumoniae and against Pseudomonas aeruginosa [2] was over 20 µM throughout. For the same molecule, the MIC with Acinetobacter baumannii and against Candida albicans was over 20 µM in each case.

For the molecule `CC(C)Oc1cccc(NC(=O)c2ccccc2C(F)(F)F)c1` [FLUTOLANIL], in the assay with HEK293, the CC50 is over 20 µM. Also, the MIC against Pseudomonas aeruginosa [1], against Cryptococcus neoformans, with Staphylococcus aureus, with Escherichia coli, against Klebsiella pneumoniae and against Pseudomonas aeruginosa [2] was over 20 µM each time. For the same molecule, the MIC with Acinetobacter baumannii and against Candida albicans was over 20 µM throughout.

Regarding `CCCCc1ccc(C(=O)O)nc1` [FUSARIC ACID], the CC50 in the assay on HEK293 is over 20 µM. Moreover, the MIC with Pseudomonas aeruginosa [1], in the assay on Cryptococcus neoformans, in the assay with Staphylococcus aureus, in the assay on Escherichia coli, in the assay with Klebsiella pneumoniae and in the assay on Pseudomonas aeruginosa [2] was over 20 µM in each case. The MIC in the assay on Acinetobacter baumannii and against Candida albicans was over 20 µM throughout.

Consider `CC(=O)O[C@H]1C[C@@]2(C)[C@@H](C[C@@H](O)[C@H]3[C@@]4(C)CC[C@@H](O)[C@@H](C)[C@@H]4CC[C@@]32C)/C1=C(\CCC=C(C)C)C(=O)O` [FUSIDIC ACID], for which, in the assay with HEK293, the CC50 was over 20 µM. Also, the MIC was over 20 µM in the assay on Pseudomonas aeruginosa [1]; over 20 µM with Cryptococcus neoformans; 0.312 µM (≈ 0.161 µg/mL) in the assay on Staphylococcus aureus; over 20 µM against Escherichia coli; over 20 µM in the assay on Klebsiella pneumoniae; over 20 µM against Pseudomonas aeruginosa [2]. For the same molecule, the MIC in the assay with Acinetobacter baumannii and against Candida albicans was over 20 µM throughout.

Turning to `Nc1nc2c(ncn2COC(CO)CO)c(=O)[nH]1` [GANCICLOVIR], the CC50 in the assay with HEK293 is over 20 µM. Moreover, the MIC against Pseudomonas aeruginosa [1], in the assay with Cryptococcus neoformans, with Staphylococcus aureus, with Escherichia coli, in the assay on Klebsiella pneumoniae and with Pseudomonas aeruginosa [2] was over 20 µM throughout. For the same molecule, the MIC in the assay on Acinetobacter baumannii and against Candida albicans was over 20 µM in each case.

In the case of `N[C@H](CCC(=O)N[C@@H](Cc1c[nH]c2ccccc12)C(=O)O)C(=O)O` [GOLOTIMOD], the CC50 in the assay with HEK293 is over 20 µM. Further, the MIC in the assay on Pseudomonas aeruginosa [1], against Cryptococcus neoformans, against Staphylococcus aureus, with Escherichia coli, with Klebsiella pneumoniae and with Pseudomonas aeruginosa [2] was over 20 µM each time. Besides, the MIC against Acinetobacter baumannii and against Candida albicans was over 20 µM each time.

As to `CN1CCN(c2ccc3[nH]c(-c4ccc5[nH]c(-c6ccc(O)cc6)nc5c4)nc3c2)CC1` [HOECHST 33258], the CC50 with HEK293 is over 20 µM. Besides, the MIC with Pseudomonas aeruginosa [1] was 20 µM (≈ 8.49 µg/mL); in the assay with Cryptococcus neoformans, 2.5 µM (≈ 1.06 µg/mL); against Staphylococcus aureus, over 20 µM; against Escherichia coli it was over 20 µM; with Klebsiella pneumoniae it was over 20 µM; against Pseudomonas aeruginosa [2] it was over 20 µM. Moreover, the MIC in the assay on Acinetobacter baumannii was over 20 µM; in the assay on Candida albicans it was 5 µM (≈ 2.12 µg/mL).

On to `Cc1ccc(NC(=O)c2ccc(CN3CCN(C)CC3)cc2)cc1Nc1nccc(-c2cccnc2)n1` [IMATINIB], for which, in the assay with HEK293, the CC50 was over 20 µM. Besides, the MIC against Pseudomonas aeruginosa [1], against Cryptococcus neoformans, against Staphylococcus aureus, in the assay with Escherichia coli, in the assay on Klebsiella pneumoniae and in the assay on Pseudomonas aeruginosa [2] was over 20 µM each time. The MIC with Acinetobacter baumannii and in the assay on Candida albicans was over 20 µM throughout.

In the case of `NC(=O)c1ccc(I)c([N+](=O)[O-])c1` [INIPARIB], the CC50 in the assay on HEK293 is over 20 µM. The MIC against Pseudomonas aeruginosa [1], with Cryptococcus neoformans, in the assay with Staphylococcus aureus, in the assay on Escherichia coli, against Klebsiella pneumoniae and against Pseudomonas aeruginosa [2] was over 20 µM throughout. Besides, the MIC with Acinetobacter baumannii and in the assay on Candida albicans was over 20 µM in each case.

For the molecule `CNCC(=O)OCc1cccnc1N(C)C(=O)OC(C)[n+]1cnn(C[C@](O)(c2cc(F)ccc2F)[C@@H](C)c2nc(-c3ccc(C#N)cc3)cs2)c1` (stereo partly specified) [ISAVUCONAZONIUM], the CC50 in the assay with HEK293 was over 20 µM. In addition, the MIC against Pseudomonas aeruginosa [1] was over 20 µM; in the assay on Cryptococcus neoformans, 2.5 µM; with Staphylococcus aureus, over 20 µM; with Escherichia coli, over 20 µM; in the assay on Klebsiella pneumoniae, over 20 µM; with Pseudomonas aeruginosa [2] it was over 20 µM. For the same molecule, the values for the MIC against Acinetobacter baumannii and against Candida albicans were over 20 µM and at most 0.156 µM, respectively.
